Results taken from patent publication US20130102595A1 (Curis, Inc., priority 2011, published 2013).

Tests used:
[1] = system: HDACs (HeLa cell nuclear extracts); assay: HDAC enzymatic activity, Biomol Color de Lys system; assay type: biochemical; conditions: 1 hour, 25° C.
Summary of the method: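 HeLa nuclear extract incubated with serially diluted compound and […] artificial substrate in 50 mM Tris/Cl pH 8.0, 137 mM NaCl, 2.7 mM KCl, 1 mM MgCl2. Run 1 h at 25 °C, stopped with developer. Fluorescence read (ex 350-380, em 440-460 nm); IC50 from sigmoidal dose-response fit.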

PI3Kα (p110α/p85α) = biological target: T1, PI3Kα (p110α/p85α) (Homo sapiens, UniProt P42336); assay: PI3Kα ADP-Glo assay; assay type: biochemical; conditions: 20 μM PIP2, 10 μM ATP, 30 minutes
T1 construct: GST (N); made in house; host or cells: Baculovirus-infected Sf9 cells
Summary of the method: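 Recombinant full-length human GST-p110α/His-p85α, co-expressed in Sf9 cells, was incubated 30 min at room temperature with 20 μM PIP2 and 10 μM ATP. The buffer was 50 mM HEPES pH 7.4, 150 mM NaCl, 5 mM MgCl2, 1 mM DTT, 3 µM orthovanadate and 0.5% DMSO. ADP formed was detected by ADP-Glo luminescence.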

T1 sequence (P42336 whole entry): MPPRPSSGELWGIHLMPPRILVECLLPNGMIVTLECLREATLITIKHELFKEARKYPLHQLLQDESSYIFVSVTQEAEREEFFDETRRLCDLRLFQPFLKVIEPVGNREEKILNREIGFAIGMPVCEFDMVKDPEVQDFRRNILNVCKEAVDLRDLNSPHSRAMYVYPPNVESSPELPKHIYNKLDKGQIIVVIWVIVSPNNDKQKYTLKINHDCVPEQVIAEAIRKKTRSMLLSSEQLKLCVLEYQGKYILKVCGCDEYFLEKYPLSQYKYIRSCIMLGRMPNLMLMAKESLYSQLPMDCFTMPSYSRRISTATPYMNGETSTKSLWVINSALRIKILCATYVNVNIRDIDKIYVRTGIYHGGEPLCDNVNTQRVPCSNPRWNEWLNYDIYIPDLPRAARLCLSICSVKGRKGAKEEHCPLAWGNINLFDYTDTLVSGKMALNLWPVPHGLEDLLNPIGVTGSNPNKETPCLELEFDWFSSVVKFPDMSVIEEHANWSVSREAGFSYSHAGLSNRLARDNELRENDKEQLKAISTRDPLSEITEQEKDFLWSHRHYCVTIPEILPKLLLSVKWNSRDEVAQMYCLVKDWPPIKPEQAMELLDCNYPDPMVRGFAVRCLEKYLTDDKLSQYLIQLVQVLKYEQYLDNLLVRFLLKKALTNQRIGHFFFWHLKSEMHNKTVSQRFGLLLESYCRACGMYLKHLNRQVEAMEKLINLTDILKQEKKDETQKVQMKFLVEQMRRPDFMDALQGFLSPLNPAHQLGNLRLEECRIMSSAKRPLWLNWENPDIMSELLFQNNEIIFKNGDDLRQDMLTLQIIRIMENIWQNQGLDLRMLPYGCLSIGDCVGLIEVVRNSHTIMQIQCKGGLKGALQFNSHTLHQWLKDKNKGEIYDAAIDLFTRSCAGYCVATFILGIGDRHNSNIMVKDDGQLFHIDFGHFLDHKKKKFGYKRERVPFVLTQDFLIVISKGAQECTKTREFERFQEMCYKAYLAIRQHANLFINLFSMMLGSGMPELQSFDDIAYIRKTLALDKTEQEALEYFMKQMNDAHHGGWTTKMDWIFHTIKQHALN
T1 sequence (P27986 whole entry partner): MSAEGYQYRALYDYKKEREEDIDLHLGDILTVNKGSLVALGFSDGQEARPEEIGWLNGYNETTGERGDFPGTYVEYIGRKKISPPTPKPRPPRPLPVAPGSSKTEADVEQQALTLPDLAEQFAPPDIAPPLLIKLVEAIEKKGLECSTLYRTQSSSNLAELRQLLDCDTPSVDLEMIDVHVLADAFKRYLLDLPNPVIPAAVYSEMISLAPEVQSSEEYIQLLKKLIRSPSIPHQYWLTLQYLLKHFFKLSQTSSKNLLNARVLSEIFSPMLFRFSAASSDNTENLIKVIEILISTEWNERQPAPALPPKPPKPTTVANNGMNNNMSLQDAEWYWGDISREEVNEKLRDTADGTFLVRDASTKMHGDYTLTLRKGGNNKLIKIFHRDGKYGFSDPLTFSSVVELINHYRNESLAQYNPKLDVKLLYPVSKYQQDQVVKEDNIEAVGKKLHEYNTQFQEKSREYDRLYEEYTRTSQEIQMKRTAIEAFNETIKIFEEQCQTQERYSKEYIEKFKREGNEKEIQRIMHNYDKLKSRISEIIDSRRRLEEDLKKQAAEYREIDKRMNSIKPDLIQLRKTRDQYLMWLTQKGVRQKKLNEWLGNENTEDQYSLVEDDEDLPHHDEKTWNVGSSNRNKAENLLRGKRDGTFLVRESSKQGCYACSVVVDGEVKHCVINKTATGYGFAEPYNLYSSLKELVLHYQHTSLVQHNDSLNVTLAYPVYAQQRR

Row | Compound | IC50 [1] | IC50 (PI3Kα (p110α/p85α)) | melting point
1 | O=C(/C=C/c1ccc(NCc2cc3nc(-c4cccc5[nH]ncc45)nc(N4CCOCC4)c3s2)cc1)NO [Compound 80, (E)-3-(4-((2-(1H-indazol-4-yl)-4-morpholinothieno[3,2-d]pyrimidin-6-yl)methylamino)phenyl)-N-hydroxyacrylamide] | 100 to 1000 nM | < 100 nM | > 300 °C
2 | CN(Cc1cc2nc(-c3cccc4[nH]ncc34)nc(N3CCOCC3)c2s1)c1ccc(/C=C/C(=O)NO)cc1 [Compound 81, (E)-3-(4-(((2-(1H-indazol-4-yl)-4-morpholinothieno[3,2-d]pyrimidin-6-yl)methyl)(methyl)amino)phenyl)-N-hydroxyacrylamide] | 1000 to 10000 nM | < 100 nM | 188 to 190 °C
3 | CC(C)(C)CN(Cc1cc2nc(-c3cccc4[nH]ncc34)nc(N3CCOCC3)c2s1)c1ncc(C(=O)NO)cn1 [Compound 83, 2-(((2-(1H-indazol-4-yl)-4-morpholinothieno[3,2-d]pyrimidin-6-yl)methyl)(neopentyl)amino)-N-hydroxypyrimidine-5-carboxamide] | 1000 to 10000 nM | 100 to 1000 nM | 240 to 242 °C
4 | CCCN(Cc1cc2nc(-c3cccc4[nH]ncc34)nc(N3CCOCC3)c2s1)c1ncc(C(=O)NO)cn1 [Compound 84, 2-(((2-(1H-indazol-4-yl)-4-morpholinothieno[3,2-d]pyrimidin-6-yl)methyl)(propyl)amino)-N-hydroxypyrimidine-5-carboxamide] | < 100 nM | < 100 nM | 224 to 226 °C
5 | CCCCN(Cc1cc2nc(-c3cccc4[nH]ncc34)nc(N3CCOCC3)c2s1)c1ncc(C(=O)NO)cn1 [Compound 85, 2-(((2-(1H-indazol-4-yl)-4-morpholinothieno[3,2-d]pyrimidin-6-yl)methyl)(butyl)amino)-N-hydroxypyrimidine-5-carboxamide] | < 100 nM | 100 to 1000 nM | 234 to 236 °C
6 | CC(C)CN(Cc1cc2nc(-c3cccc4[nH]ncc34)nc(N3CCOCC3)c2s1)c1ncc(C(=O)NO)cn1 [Compound 93, 2-(((2-(1H-indazol-4-yl)-4-morpholinothieno[3,2-d]pyrimidin-6-yl)methyl)(isobutyl)amino)-N-hydroxypyrimidine-5-carboxamide] | 100 to 1000 nM | 100 to 1000 nM | 196 to 198 °C
7 | CN(CCCCCC(=O)NO)Cc1cc2nc(-c3cccc4[nH]ncc34)nc(N3CCOCC3)c2s1 [Compound 103, 6-(((2-(1H-indazol-4-yl)-4-morpholinothieno[3,2-d]pyrimidin-6-yl)methyl)(methyl)amino)-N-hydroxyhexanamide] | < 100 nM | 100 to 1000 nM | 115 to 118 °C
8 | CN(CCCCCCC(=O)NO)Cc1cc2nc(-c3cccc4[nH]ncc34)nc(N3CCOCC3)c2s1 [Compound 104, 7-(((2-(1H-indazol-4-yl)-4-morpholinothieno[3,2-d]pyrimidin-6-yl)methyl)(methyl)amino)-N-hydroxyheptanamide] | 100 to 1000 nM | < 100 nM | 131 to 133 °C
9 | CC(=O)Nc1cccc(-c2nc(N3CCOCC3)c3sc(CN(C)c4ncc(C(=O)NO)cn4)cc3n2)c1 [Compound 107, 2-(((2-(3-acetamidophenyl)-4-morpholinothieno[3,2-d]pyrimidin-6-yl)methyl)(methyl)amino)-N-hydroxypyrimidine-5-carboxamide] | < 100 nM | 1000 to 10000 nM | 183 to 185 °C
10 | CN(C)c1cccc(-c2nc(N3CCOCC3)c3sc(CN(C)c4ncc(C(=O)NO)cn4)cc3n2)c1 [Compound 108, 2-(((2-(3-(dimethylamino)phenyl)-4-morpholinothieno[3,2-d]pyrimidin-6-yl)methyl)(methyl)amino)-N-hydroxypyrimidine-5-carboxamide] | < 100 nM | 1000 to 10000 nM | 172 to 175 °C
